Test [1] concerns the target Phospholipase A2 group IB (pancreatic, Sus scrofa). The test is described as follows: In vitro activity against porcine pancreatic phospholipase-A2 (PLA2) and monomerically dispersed substrate.
Test [2] deals with Phospholipase A2 group IB (Sus scrofa). The test can be described thus: In vitro activity against porcine pancreatic phospholipase-A2 (PLA2) and micellar substrate with deoxycholate (DOC).

Consider seven compounds from BindingDB's records for doi:10.1021/jm00031a001 (Fisons, 1994).

For `CCCCCC/C=C/CC(=O)N[C@@H](CC(=O)O)CC(C)C` [(R)-3-((S)-(E)-Dec-3-enoylamino)-5-methyl-hexanoic acid], the IC50 (usually the point on the concentration scale where inhibition reaches its midpoint) in test [1] came out at 300 nM; in test [2], 8500 nM.
Taken in the same sequence, the figures for `CCCCCCCCCC(=O)N[C@@H](CC(=O)O)CC(C)C` [(R)-3-((S)-Decanoylamino)-5-methyl-hexanoic acid] were 1400 nM and 15000 nM.
For `CCCCCCCCCCCCCCCC(=O)N[C@@H](CC(=O)O)CC(C)C` [(R)-3-((S)-Hexadecanoylamino)-5-methyl-hexanoic acid], the IC50 in test [1] turned out to be 190 nM; in test [2], 7300 nM.
For the compound `CCCCCC/C=C/CC(=O)N[C@H](CSc1ccc2ccccc2c1)CC(=O)O` [(S)-3-((S)-(E)-Dec-3-enoylamino)-4-(naphthalen-2-ylsulfanyl)-butyric acid], the results for the IC50 in test [1] and in test [2] were 23 nM and 790 nM, respectively.
With `CCCCCC/C=C/CC(=O)N[C@H](CSc1ccccc1)CC(=O)O` [(S)-3-((S)-(E)-Dec-3-enoylamino)-4-phenylsulfanyl-butyric acid], the IC50 in test [1] turned out to be 95 nM; in test [2], 2200 nM.
Take `CCCCCCCCCCCCCCCC(=O)N[C@@H](CCC(=O)O)CC(C)C` [(S)-4-((S)-Hexadecanoylamino)-6-methyl-heptanoic acid]: the IC50 in test [1] came to 200 nM; in test [2], 4500 nM.
`CCCCCCCCCCCCCCCC(=O)N[C@@H](CCCC(=O)O)CC(C)C` [(S)-5-((S)-Hexadecanoylamino)-7-methyl-octanoic acid]: the IC50 in test [1] was 1300 nM; in test [2], 19000 nM.
